Structures can show the parent of a compound that is named as a salt. Where two headings read alike, the source gives them in different places.
Experiments:
human CYP1A2 [1] = target: T1, human CYP1A2 (Homo sapiens, UniProt P05177); conditions: human
T1 sequence (P05177 1-516): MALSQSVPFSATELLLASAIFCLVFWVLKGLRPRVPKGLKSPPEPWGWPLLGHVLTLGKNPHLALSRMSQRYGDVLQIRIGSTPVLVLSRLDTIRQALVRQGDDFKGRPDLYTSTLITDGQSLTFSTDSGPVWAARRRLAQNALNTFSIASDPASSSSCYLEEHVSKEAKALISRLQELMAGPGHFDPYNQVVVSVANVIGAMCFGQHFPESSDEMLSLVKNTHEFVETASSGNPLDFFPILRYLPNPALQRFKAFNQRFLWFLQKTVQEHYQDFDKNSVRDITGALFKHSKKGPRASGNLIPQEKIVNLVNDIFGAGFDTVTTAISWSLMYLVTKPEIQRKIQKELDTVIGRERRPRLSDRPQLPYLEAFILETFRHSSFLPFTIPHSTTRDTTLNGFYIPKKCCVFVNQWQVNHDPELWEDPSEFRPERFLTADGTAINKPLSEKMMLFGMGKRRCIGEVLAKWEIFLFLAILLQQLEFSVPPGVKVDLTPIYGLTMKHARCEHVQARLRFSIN

human CYP2C9 [2] = target: T2, human CYP2C9 (Homo sapiens, UniProt P11712); conditions: human
T2 sequence (P11712 whole entry): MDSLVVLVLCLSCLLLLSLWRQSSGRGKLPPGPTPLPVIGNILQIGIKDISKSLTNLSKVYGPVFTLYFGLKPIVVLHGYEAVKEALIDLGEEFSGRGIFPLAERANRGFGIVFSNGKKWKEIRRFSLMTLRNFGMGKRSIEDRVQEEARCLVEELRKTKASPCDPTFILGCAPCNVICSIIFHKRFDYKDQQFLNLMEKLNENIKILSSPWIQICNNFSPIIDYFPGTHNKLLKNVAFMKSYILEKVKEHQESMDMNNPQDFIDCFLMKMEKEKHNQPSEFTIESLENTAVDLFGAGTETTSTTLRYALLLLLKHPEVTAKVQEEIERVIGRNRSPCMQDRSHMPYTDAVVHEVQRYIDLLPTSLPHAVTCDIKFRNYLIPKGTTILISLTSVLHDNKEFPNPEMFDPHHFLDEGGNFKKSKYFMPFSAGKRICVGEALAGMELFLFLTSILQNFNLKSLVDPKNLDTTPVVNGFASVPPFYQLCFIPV

human CYP2C19 [3] = target: T3, human CYP2C19 (Homo sapiens, UniProt P33261); conditions: human
T3 sequence (P33261 whole entry): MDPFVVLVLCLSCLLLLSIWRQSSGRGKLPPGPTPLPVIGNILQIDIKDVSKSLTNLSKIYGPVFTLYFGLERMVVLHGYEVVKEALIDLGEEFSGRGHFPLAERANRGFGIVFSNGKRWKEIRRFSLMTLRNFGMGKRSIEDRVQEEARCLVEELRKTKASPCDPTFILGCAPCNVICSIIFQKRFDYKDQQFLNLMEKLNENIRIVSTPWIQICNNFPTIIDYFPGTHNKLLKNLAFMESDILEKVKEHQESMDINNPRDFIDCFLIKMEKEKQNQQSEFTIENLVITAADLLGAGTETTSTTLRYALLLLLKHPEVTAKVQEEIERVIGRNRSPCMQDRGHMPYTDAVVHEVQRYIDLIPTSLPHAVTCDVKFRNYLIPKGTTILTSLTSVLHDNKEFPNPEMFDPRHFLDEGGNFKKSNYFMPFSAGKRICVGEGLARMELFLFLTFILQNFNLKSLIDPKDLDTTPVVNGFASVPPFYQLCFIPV

human CYP2D6 [4] = target: T4, human CYP2D6 (Homo sapiens, UniProt P10635); conditions: human
T4 sequence (P10635 whole entry): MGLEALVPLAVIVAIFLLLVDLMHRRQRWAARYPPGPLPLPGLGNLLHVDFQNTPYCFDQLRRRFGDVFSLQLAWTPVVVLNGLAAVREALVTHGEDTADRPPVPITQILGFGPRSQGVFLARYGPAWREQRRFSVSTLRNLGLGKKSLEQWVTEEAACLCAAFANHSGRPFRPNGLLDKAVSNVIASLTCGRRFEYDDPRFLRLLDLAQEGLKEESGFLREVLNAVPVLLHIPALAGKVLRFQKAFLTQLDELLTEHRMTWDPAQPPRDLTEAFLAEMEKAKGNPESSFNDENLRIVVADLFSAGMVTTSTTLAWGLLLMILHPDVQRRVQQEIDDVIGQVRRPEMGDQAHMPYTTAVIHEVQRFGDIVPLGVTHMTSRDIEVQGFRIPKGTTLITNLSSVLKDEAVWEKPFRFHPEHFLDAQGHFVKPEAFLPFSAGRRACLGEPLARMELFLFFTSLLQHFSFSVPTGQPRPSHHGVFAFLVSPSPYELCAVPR

human CYP1A2 [5] = target: T1, human CYP1A2; assay: biochemical
human CYP2C9 [6] = target: T2, human CYP2C9; assay: biochemical
human CYP2C19 [7] = target: T3, human CYP2C19; assay: biochemical
human CYP2D6 [8] = target: T4, human CYP2D6; assay: biochemical
[9] = CYP1A2 IC50 (half-maximal inhibitory concentration)
[10] = CYP2C9 IC50 (half-maximal inhibitory concentration)
[11] = CYP2C19 IC50 (half-maximal inhibitory concentration)
[12] = CYP2D6 IC50 (half-maximal inhibitory concentration)

## O=S(=O)(c1ccc(Cl)cc1)c1ccc(Cl)cc1 [4,4'-Dichlorodiphenyl sulfone]
Human CYP1A2 [1]
  CYP1A2 Efficacy (in parenthesis): 36.17 ± 4.16 (-44 ± 9) %
Human CYP2C9 [2]
  CYP2C9 Efficacy (in parenthesis): 31.35 ± 2.66 (-52 ± 4) %
Human CYP2C19 [3]
  CYP2C19 Efficacy (in parenthesis): 0.34 ± 0.1 (-146 ± 11) %
Human CYP2D6 [4]
  CYP2D6 Efficacy (in parenthesis): 40.58 ± 4.66 (-51 ± 10) %
Human CYP1A2 [5]; [9]
  IC50: 36.2 µM
Human CYP2C9 [6]; [10]
  IC50: 31.4 µM
Human CYP2C19 [7]; [11]
  IC50: 0.34 µM
Human CYP2D6 [8]; [12]
  IC50: 40.6 µM

## CCOC(=O)[C@H](CCc1ccccc1)N[C@H]1CCc2ccccc2N(CC(=O)O)C1=O [Benazepril]
Human CYP1A2 [5]; [9]
  IC50: 14 µM
Human CYP2C9 [6]; [10]
  IC50: 7.32 µM
Human CYP2C19 [7]; [11]
  IC50: 6.84 µM
Human CYP2D6 [8]; [12]
  IC50: 29.2 µM

## CC(Cc1cccc(C(F)(F)F)c1)NCCOC(=O)c1ccccc1 (stereo not shown) [Benfluorex hydrochloride]
Human CYP1A2 [5]; [9]
  IC50: 2.6 µM
Human CYP2C9 [6]; [10]
  IC50: 25.3 µM
Human CYP2C19 [7]; [11]
  IC50: 6.95 µM
Human CYP2D6 [8]; [12]
  IC50: 0.08 µM

## c1ccc(-c2ccc(C(c3ccccc3)n3ccnc3)cc2)cc1 (stereo not shown) [Bifonazole]
Human CYP1A2 [1]
  CYP1A2 Efficacy (in parenthesis): 5.3 ± 0.35 (-105 ± 4) %
Human CYP2C9 [2]
  CYP2C9 Efficacy (in parenthesis): 0.25 ± 0.05 (-104 ± 3) %
Human CYP2C19 [3]
  CYP2C19 Efficacy (in parenthesis): 0.47 ± 0.14 (-136 ± 18) %
Human CYP2D6 [4]
  CYP2D6 Efficacy (in parenthesis): 1.82 ± 0.33 (-107 ± 6) %
Human CYP1A2 [5]; [9]
  IC50: 5.3 µM
Human CYP2C9 [6]; [10]
  IC50: 0.25 µM
Human CYP2C19 [7]; [11]
  IC50: 0.47 µM
Human CYP2D6 [8]; [12]
  IC50: 1.82 µM

## Clc1ccc(CCC(Cn2ccnc2)Sc2c(Cl)cccc2Cl)cc1 (stereo not shown) [Butoconazole nitrate]
Human CYP1A2 [1]
  CYP1A2 Efficacy (in parenthesis): 16.12 ± 1.09 (-93 ± 6) %
Human CYP2C9 [2]
  CYP2C9 Efficacy (in parenthesis): 0.1 ± 0.02 (-98 ± 4) %
Human CYP2C19 [3]
  CYP2C19 Efficacy (in parenthesis): 0.04 ± 0.0 (-132 ± 17) %
Human CYP2D6 [4]
  CYP2D6 Efficacy (in parenthesis): 2.37 ± 0.15 (-100 ± 5) %
Human CYP1A2 [5]; [9]
  IC50: 16.1 µM
Human CYP2C9 [6]; [10]
  IC50: 0.1 µM
Human CYP2C19 [7]; [11]
  IC50: 0.04 µM
Human CYP2D6 [8]; [12]
  IC50: 2.37 µM

## COc1ccc2c(c1OC)CN1CCc3cc4c(cc3[C@@H]1C2)OCO4 [Canadine]
Human CYP1A2 [5]; [9]
  IC50: 9.1 µM
Human CYP2C9 [6]; [10]
  IC50: 26.4 µM
Human CYP2C19 [7]; [11]
  IC50: 1.25 µM
Human CYP2D6 [8]; [12]
  IC50: 0.26 µM

## CCOP(=S)(OCC)SCSc1ccc(Cl)cc1 [Carbophenothion]
Human CYP1A2 [1]
  CYP1A2 Efficacy (in parenthesis): 8.84 ± 2.46 (-90 ± 2) %
Human CYP2C9 [2]
  CYP2C9 Efficacy (in parenthesis): 1.13 ± 0.13 (-94 ± 12) %
Human CYP2C19 [3]
  CYP2C19 Efficacy (in parenthesis): 0.47 ± 0.18 (-138 ± 5) %
Human CYP2D6 [4]
  CYP2D6 Efficacy (in parenthesis): 13.25 ± 2.38 (-84 ± 7) %
Human CYP1A2 [5]; [9]
  IC50: 8.84 µM
Human CYP2C9 [6]
  IC50: 1.13 µM
Human CYP2C19 [7]; [11]
  IC50: 0.47 µM
Human CYP2D6 [8]
  IC50: 13.2 µM

## COC(=O)c1c(Cl)c(Cl)c(C(=O)OC)c(Cl)c1Cl [Chlorthal-dimethyl]
Human CYP2D6 [4]; 1 h
  CYP2D6 Efficacy (in parenthesis): 44.96 ± 16.37 (-48 ± 8) %
Human CYP1A2 [5]
  AC50: 0.29 µM
  IC50: 0.21 µM
Human CYP2C9 [6]
  AC50: 1.46 µM
  IC50: 1.43 µM
Human CYP2C19 [7]
  AC50: 21.8 µM
  IC50: 20.7 µM
Human CYP2D6 [8]
  IC50: 45 µM

## COCCOC(=O)C1=C(C)NC(C)=C(C(=O)OC/C=C/c2ccccc2)C1c1cccc([N+](=O)[O-])c1 (stereo not shown) [Cilnidipine]
Human CYP1A2 [5]; [9]
  IC50: 15.6 µM
Human CYP2C9 [6]; [10]
  IC50: 0.21 µM
Human CYP2C19 [7]; [11]
  IC50: 1.75 µM
Human CYP2D6 [8]; [12]
  IC50: 29.2 µM

## CC(C)(C)C(=O)C(Oc1ccc(Cl)cc1)n1ccnc1 (stereo not shown) [Climbazole]
Human CYP1A2 [5]; [9]
  IC50: 16.1 µM
Human CYP2C9 [6]; [10]
  IC50: 3.23 µM
Human CYP2C19 [7]; [11]
  IC50: 1.56 µM
Human CYP2D6 [8]; [12]
  IC50: 28.7 µM

## CCOP(=S)(OCC)Oc1ccc2c(C)c(Cl)c(=O)oc2c1 [Coumaphos]
Human CYP1A2 [1]
  CYP1A2 Efficacy (in parenthesis): 3.5 ± 0.6 (-95 ± 2) %
Human CYP2C9 [2]
  CYP2C9 Efficacy (in parenthesis): 0.28 ± 0.02 (-103 ± 5) %
Human CYP2C19 [3]
  CYP2C19 Efficacy (in parenthesis): 0.32 ± 0.04 (-144 ± 23) %
Human CYP2D6 [4]
  CYP2D6 Efficacy (in parenthesis): 5.34 ± 0.96 (-101 ± 7) %
Human CYP1A2 [5]; [9]
  IC50: 3.5 µM
Human CYP2C9 [6]
  IC50: 0.28 µM
Human CYP2C19 [7]; [11]
  IC50: 0.32 µM
Human CYP2D6 [8]
  IC50: 5.34 µM

## CC[N+](CC)(CC(=O)Nc1c(C)cccc1C)Cc1ccccc1 [Denatonium benzoate]
Human CYP1A2 [1]
  CYP1A2 Efficacy (in parenthesis): 38.47 ± 2.51 (-59 ± 16) %
Human CYP2C19 [3]
  CYP2C19 Efficacy (in parenthesis): 38.47 ± 2.51 (-100 ± 4) %
Human CYP2D6 [4]
  CYP2D6 Efficacy (in parenthesis): 0.01 ± 0 (-107 ± 7) %
Human CYP1A2 [5]; [9]
  IC50: 38.5 µM
Human CYP2C19 [7]; [11]
  IC50: 38.5 µM
Human CYP2D6 [8]; [12]
  IC50: 0.01 µM

## Clc1ccc(COC(Cn2ccnc2)c2ccc(Cl)cc2Cl)cc1 (stereo not shown) [Econazole nitrate]
Human CYP1A2 [1]
  CYP1A2 Efficacy (in parenthesis): 1.18 ± 0.6 (-104 ± 2) %
Human CYP2C19 [3]
  CYP2C19 Efficacy (in parenthesis): 0.15 ± 0.02 (-152 ± 3) %
Human CYP2D6 [4]
  CYP2D6 Efficacy (in parenthesis): 0.4 ± 0.23 (-105 ± 10) %
Human CYP1A2 [5]; [9]
  IC50: 1.18 µM
Human CYP2C19 [7]; [11]
  IC50: 0.15 µM
Human CYP2D6 [8]; [12]
  IC50: 0.4 µM

## O=C(OCC(O)CO)c1ccccc1Nc1ccnc2c(C(F)(F)F)cccc12 (stereo not shown) [Floctafenine]
Human CYP1A2 [5]
  IC50: 2.91 ± 0.17 µM
Human CYP2C9 [6]
  IC50: 10.2 ± 0.69 µM
Human CYP2C19 [7]
  IC50: 0.35 µM
Human CYP2D6 [8]
  IC50: 23.6 ± 7.75 µM

## CC(COc1ccccc1)NC(C)C(O)c1ccc(O)cc1 (stereo not shown) [Isoxsuprine hydrochloride]
Human CYP1A2 [5]; CYP1A2 AC50 (half-maximal activity concentration)
  AC50: 16.1 µM
Human CYP1A2 [5]; [9]
  IC50: 16.1 µM
Human CYP2C9 [6]; CYP2C9 AC50 (half-maximal activity concentration)
  AC50: 14.9 µM
Human CYP2C9 [6]; [10]
  IC50: 14.9 µM
Human CYP2C19 [7]; CYP2C19 AC50 (half-maximal activity concentration)
  AC50: 7.99 µM
Human CYP2C19 [7]; [11]
  IC50: 7.99 µM
Human CYP2D6 [8]; CYP2D6 AC50 (half-maximal activity concentration)
  AC50: 0.55 µM
Human CYP2D6 [8]; [12]
  IC50: 0.55 µM

## COc1c2occc2c(OC)c2c(=O)cc(C)oc12 [Khellin]
Human CYP1A2 [5]; [9]
  IC50: 0.15 µM
Human CYP2C9 [6]; [10]
  IC50: 14.4 µM
Human CYP2C19 [7]; [11]
  IC50: 6.65 µM
Human CYP2D6 [8]; [12]
  IC50: 14.5 µM

## CCOC(=O)C1=C(C)NC(C)=C(C(=O)OCC)C1c1ccccc1/C=C/C(=O)OC(C)(C)C [Lacidipine]
Human CYP1A2 [5]; [9]
  IC50: 23.9 µM
Human CYP2C9 [6]; [10]
  IC50: 1.29 µM
Human CYP2C19 [7]; [11]
  IC50: 6.72 µM
Human CYP2D6 [8]; [12]
  IC50: 15.7 µM
